Measured values reported in US20240360193A1, “POLYPEPTIDE DERIVATIVE WITH DUAL GLP-1R AND GIPR TARGETING AGONISTIC EFFECT, AND PREPARATION METHOD AND USE THEREOF” (NANJING ZHIHE MEDICINE TECHNOLOGY CO., LTD., priority 2021, published 2024).
Read-outs that look alike come from different tables or passages of the source. Square brackets hold non-standard residues; d marks the D form. Peptide text beside a SMILES is read from it. * marks the point of attachment. X1 = O=C(O)CCCCCCCCCCCCCCCCCCC(=O)NC(CCC(=O)NCCOCCOCCNC(=O)COCCOCC(=O)*)C(=O)O; Aib = CC(C)(N)C(=O)O

Experiments:
[1] = set-up: species or system humans; details: human, in vivo
Source text: According to disclosed data, an average clinical half-life of the control Tirzepatide in humans is 5.0 days.

in vivo = assay: in vivo; set-up: species or system SD rats; details: rat, sc, 1.35 mg/kg; for MRT: male, SD
Procedure: The polypeptide derivative (1) and Tirzepatide were subcutaneously administered to male rats respectively in a single dose, blood samples of the male rats were then collected at different time points, and a concentration of the compound in plasma was determined by LC-MS/MS and related pharmacokinetic parameters were calculated, to investigate the pharmacokinetic characteristics of the compound in the rats.
16 male SD rats were randomly divided into two groups of eight rats each based on body weights. The rats were fasted for 12 h to 14 h, but water was allowed, one day before the administration. The rats were given food 4 h after the administration.
Sample collection: Before and after the administration, 0.1 mL of blood was sampled from the orbit of each rat under isoflurane anaesthesia, and then added in an EDTAK2 centrifuge tube in an ice bath to be centrifuged at 4° C. at 5000 rpm for 10 min. Then, plasma was collected.
Time points for blood collection of SC groups are 0, 5 min, 15 min, 30 min, 1 h, 2 h, 4 h, 6 h, 8 h, 24 h, 28 h, 32 h, and 48 h. All plasma samples were stored at −80° C. before analysis and testing.
The software Analyst 1.5.1 (Applied Biosystem) was used for data collection and system control. Automatic chromatographic peak integration was used for the sample. The sample concentration was regressed with a ratio of the sample peak area to the internal standard peak area as an index. Linear regression was used with a weighting factor of 1/X^2. Pharmacokinetic parameters were analyzed and processed with a non-compartmental model by using WinNonlin Professional v6.3 (Pharsight, USA). Cmax is a measured maximum plasma concentration. An area AUC(0→t) under a plasma concentration-time curve is obtained through ladder-shape calculation. Tmax is a time of a peak plasma concentration after the administration. The experimental data was expressed as “mean±standard deviation” (Mean±SD, n≥8) or “mean” (Mean, n=8).
Based on the plasma concentration data, the pharmacokinetic parameters after the administration calculated with the on-compartmental model by using WinNonlin V6.3 are shown in the following table.

[2] = human, in vivo; cited from earlier work

CC[C@H](C)[C@H](NC(=O)[C@H](CCCCN)NC(=O)[C@H](CC(=O)O)NC(=O)[C@H](CC(C)C)NC(=O)C(C)(C)NC(=O)[C@@H](NC(=O)[C@H](CO)NC(=O)[C@H](Cc1ccc(O)cc1)NC(=O)[C@H](CC(=O)O)NC(=O)[C@H](CO)NC(=O)[C@@H](NC(=O)[C@H](Cc1ccccc1)NC(=O)[C@@H](NC(=O)CNC(=O)[C@H](CC(=O)O)NC(=O)C(C)(C)NC(=O)[C@@H](N)Cc1ccc(O)cc1)[C@@H](C)O)[C@@H](C)O)[C@@H](C)CC)C(=O)N[C@@H](C)C(=O)N[C@@H](CCC(N)=O)C(=O)N[C@@H](CCCCNC(=O)COCCOCC(=O)NCCOCCOCCNC(=O)CCC(NC(=O)CCCCCCCCCCCCCCCCCCC(=O)O)C(=O)O)C(=O)N[C@@H](C)C(=O)N[C@@H](Cc1ccccc1)C(=O)N[C@H](C(=O)N[C@@H](CCC(N)=O)C(=O)N[C@@H](Cc1c[nH]c2ccccc12)C(=O)N[C@@H](CC(C)C)C(=O)N[C@@H](CC(C)C)C(=O)N[C@@H](C)C(=O)NCC(=O)NCC(=O)N1CCC[C@H]1C(=O)N[C@@H](CO)C(=O)N[C@@H](CO)C(=O)NCC(=O)N[C@@H](C)C(=O)N1CCC[C@H]1C(=O)N1CCC[C@H]1C(=O)N1CCC[C@H]1C(=O)N[C@@H](CO)C(N)=O)C(C)C (some centres unmarked) [Polypeptide derivative (1)] (H-Y[Aib]DGTFTSDYSI[Aib]LDKIAQK(X1)AFVQWLLAGGPSSGAPPPS-NH2)
half-life [1]: 189 h | MRT (in vivo): 33.6 h | AUC(0-inf) (in vivo): 89.7 µg·h/mL | AUC(0-t) (in vivo): 70.4 µg·h/mL | AUMC0-inf (in vivo): 3022264 h · h · ng · mL^−1 | AUMC0-t (in vivo): 1621331 h · h · ng · mL^−1 | Cmax (in vivo): 2.07 µg/mL | Kel (in vivo): 0.0421 h⁻¹ | Tmax (in vivo): 25.3 h | half-life (in vivo): 16.7 h

CC[C@H](C)[C@H](NC(=O)[C@H](CC(C)C)NC(=O)[C@H](Cc1c[nH]c2ccccc12)NC(=O)[C@H](CCC(N)=O)NC(=O)[C@@H](NC(=O)[C@H](Cc1ccccc1)NC(=O)[C@H](C)NC(=O)[C@H](CCCCNC(=O)COCCOCCNC(=O)COCCOCCNC(=O)CC[C@H](NC(=O)CCCCCCCCCCCCCCCCCCC(=O)O)C(=O)O)NC(=O)[C@H](CCC(N)=O)NC(=O)[C@H](C)NC(=O)[C@@H](NC(=O)[C@H](CCCCN)NC(=O)[C@H](CC(=O)O)NC(=O)[C@H](CC(C)C)NC(=O)C(C)(C)NC(=O)[C@@H](NC(=O)[C@H](CO)NC(=O)[C@H](Cc1ccc(O)cc1)NC(=O)[C@H](CC(=O)O)NC(=O)[C@H](CO)NC(=O)[C@@H](NC(=O)[C@H](Cc1ccccc1)NC(=O)[C@@H](NC(=O)CNC(=O)[C@H](CCC(=O)O)NC(=O)C(C)(C)NC(=O)[C@@H](N)Cc1ccc(O)cc1)[C@@H](C)O)[C@@H](C)O)[C@@H](C)CC)[C@@H](C)CC)C(C)C)C(=O)N[C@@H](C)C(=O)NCC(=O)NCC(=O)N1CCC[C@H]1C(=O)N[C@@H](CO)C(=O)N[C@@H](CO)C(=O)NCC(=O)N[C@@H](C)C(=O)N1CCC[C@H]1C(=O)N1CCC[C@H]1C(=O)N1CCC[C@H]1C(=O)N[C@@H](CO)C(N)=O [Tirzepatide]
MRT (in vivo): 25.6 h | AUC(0-inf) (in vivo): 52.1 µg·h/mL | AUC(0-t) (in vivo): 46.7 µg·h/mL | AUMC0-inf (in vivo): 1352210 h · h · ng · mL^−1 | AUMC0-t (in vivo): 1003190 h · h · ng · mL^−1 | Cmax (in vivo): 1.54 µg/mL | Kel (in vivo): 0.0680 h⁻¹ | Tmax (in vivo): 20 h | half-life (in vivo): 10.6 h | average clinical half-life in humans [2]: 120 h
